The test system of one assay is kasumi-1 human AML cells. Nature of the assay: CD34+CD38- LSC analysis by FACS, Kasumi-1 cells with or without OP9 stroma. It is filed as cell-based. As to conditions: 1 μM RA plus compound, OP9 stroma present, 72 hours. The protocol: Many human non-APL AML cell lines are sensitive to RA-induced differentiation. However, co-culture of leukemic cells with bone marrow stromal cells can block this effect of RA. This assay tests the ability of CYP26 inhibitor compounds to overcome the protective effect that stromal cells have on leukemic cell differentiation. For these experiments, OP9 mouse bone marrow stromal cells are grown MEM-α containing 20% FBS, in 24 well plates until a cell monolayer is formed. OP9 cells are then irradiated (15Gy) using a GammaCell 20 cesium-137 source (located at Queen's University) in order to induce growth arrest. Leukemic cells are then added to the irradiated monolayers, or control wells without OP9 cells. AML cell lines (150,000 cells) are then plated onto OP9 monolayers in their appropriated growth medium; THP-1 RPMI-1640 medium containing 10% FBS; MDSL, RPMI-1640 medium containing 10% FBS and 10 ng/ml recombinant human IL-3; Kasumi-1, RPMI-1640 containing 20% FBS; MV4-11, IMDM containing 10% FBS. […] Stained cells are then sorted by FACS in a BD FACS Aria 3 flow cytometer (Queen's University) using FACS Diva software, to assess percentage of cells that are CD11b^+, the relative expression levels of CD11b (by median fluorescence intensity—MFI), or percentage of CD34^+CD38^− leukemic stem cells (LSCs). […]
In general terms: In flow cytometry, cells or beads pass a laser one at a time.

The test system of another assay is THP-1 cells. Briefly: Leukemia cell colony formation, THP-1 cells. As to conditions: RA plus compound, culture with stromal cells. It counts as cell-based, human. The protocol:
This experiment is used to test the long-term proliferative ability of hematopoietic stem and progenitor cells as well as leukemic stem cells. Colony forming ability in long term cultures is indicative of stem/progenitor cell activity. […] For these experiments, bone marrow stromal and leukemic cell co-cultures are prepared as described above and treated with RA and/or CYP26 inhibitor compound for 72 hours. After the treatment period, leukemic cells are collected and re-plated in semi-solid methylcellulose medium to assess colony forming ability. 500 leukemic cells are plated per dish in 35 mm plates in 1.1 ml of MethoCult (available from STEMCELL Technologies, Vancouver, Canada). Triplicate plates are prepared per treatment, and cultures are grown for 14-16 days in a CO2 incubator. After the culture period colonies are counted under a dissecting microscope.

Assay [1] concerns bone marrow mononuclear cells of mice. Nature of the assay: Induction of RA activity in mouse bone marrow (QPCR of RA target genes). It is filed as in vivo. The following applies: intravenous 40 μg/kg once per day for two days, versus vehicle. The protocol:
Human and mouse bone marrow stromal cells express CYP26 enzymes and Cyp26B1 is highly inducible by RA in these cells. This experiment tests whether exposure of bone marrow to a CYP26 inhibitor is sufficient to raise RA levels in the bone marrow and induce RA-target genes. Mice (8-12 week old) were given intravenous injections (tall vein) on two consecutive days (once per day) of CYP26 inhibitor compound dissolved in 0.9% sodium chloride/0.1% DMSO. Animals were given a dose of 40 μg/kg of inhibitor, or an equal volume of vehicle alone. The morning after the second injection, animals were sacrificed, and bone marrow mononuclear cells were harvested from femurs using Lympholyte-mammal reagent (available from Cedarlane, Burlington, Canada). RNA was then extracted from isolated cells, and RA target gene expression assessed by qPCR.

The next assay concerns MV4-11 cells. Briefly: Leukemia cell apoptosis (FITC-Annexin V), MV4-11 cells. It counts as cell-based, human. As to conditions: 0.1 μM RA plus 1 μM compound, stromal cells present, 48 hours. The procedure:
RA can also induce apoptosis is a variety of cell types, including AML cells. This experiment tests CYP26 inhibitor compounds for their ability to rescue RA-induced apoptosis in the presence of bone marrow stromal cells. For these experiments MV4-11 AML cells are plated as above, in the presence and absence of stromal monolayers. Cells are then treated for 48 hours with RA (0.1 μM). After the treatment period, cells are stained with a FITC-labeled annexin V antibody (available from Thermofisher Scientific), which binds to the surface of apoptotic cells. Cells are then sorted by FACS in a as above and data are expressed as percentage of annexin V^+ (apoptotic) cells.

In assay [2] the test system is mouse OP9 bone marrow stromal cells. Nature of the assay: RA metabolism by OP9 bone marrow stromal cells. It counts as cell-based. The protocol: (§1) These experiments are to assess the ability of primary cells, or cell lines to metabolize RA, and to determine the effect of inhibition of CYP26A1 or CYP26B1 on this ability. For these experiments, cells are plated into 48-well plates and treated with a radiolabeled (^3H) RA. The extent of conversion of this labeled RA to water soluble metabolites is determined as above for in the cell-based inhibitor assay. Primary human bone marrow stromal cells (available from Lonza) were cultured in MyeloCult (available from Stem Cell Technologies, Vancouver, Canada). Mouse OP9 bone marrow stromal cells and MC3T3 pre-osteoblasts were cultured as above. Cells are plated in the appropriate culture medium and allowed to form a monolayer. Cells are then pre-treated with either DMSO (vehicle control) or RA (1 μM) for 24 hours to induce CYP26 expression. Vehicle, and RA induced cells are then exposed to ^3H-RA in the presence or absence of test CYP26 inhibitor to examine the effects on RA metabolism. Cells are incubated for 3 hours with labeled RA, and metabolites extracted and analyzed as above.

The subject of a further assay is MC3T3-E1 cells. Nature of the assay: Osteoblast cell differentiation, MC3T3-E1 cells. It counts as cell-based, mouse. The protocol: These experiments are used to test the ability of CYP26 inhibitors to reduce or block osteoblast differentiation in vitro using a cell culture model. MC3T3-E1 mouse calvarias pre-osteoblasts (available from the American Type Culture Collection) were cultured in MEM-α without ascorbic acid. To induce osteoblast differentiation and matrix mineralization, cells are switched to medium containing ascorbic acid (50 μg/ml) and phosphate (10 mM β-glycerophosphate) and cultured for up to 21 days while changing media every 2-3 days. Cells are also treated with varying concentrations of RA or CYP26 inhibitor compound to assess effects on osteoblast differentiation. At the end of the treatment period, cells in 24-well plates and fixed in 70% ethanol, and stained with Alizarin red (40 mM pH 4.2) to visualize calcified extracellular matrix, indicative of osteoblast differentiation. Stained wells were photographed under a Leica MZ95 dissecting microscope. Other cells grown in 6 well plates are used for RNA extraction, and qPCR analysis of bone differentiation markers and RA target genes.

The test system of assay [3] is primary human bone marrow stromal cells. Briefly: RA metabolism by primary human bone marrow stromal cells. It is filed as cell-based. As to conditions: pre-treated with DMSO or 1 μM RA 24 hours; 1 μM compound (FIG. 5). The protocol:
as §1

A further assay concerns human AML THP-1 cells. Nature of the assay: Leukemia cell differentiation by FACS (PE-CD11b), THP-1 cells with or without OP9 stroma. It counts as cell-based. The procedure: Many human non-APL AML cell lines are sensitive to RA-induced differentiation. However, co-culture of leukemic cells with bone marrow stromal cells can block this effect of RA. This assay tests the ability of CYP26 inhibitor compounds to overcome the protective effect that stromal cells have on leukemic cell differentiation. For these experiments, OP9 mouse bone marrow stromal cells are grown MEM-α containing 20% FBS, in 24 well plates until a cell monolayer is formed. OP9 cells are then irradiated (15Gy) using a GammaCell 20 cesium-137 source (located at Queen's University) in order to induce growth arrest. Leukemic cells are then added to the irradiated monolayers, or control wells without OP9 cells. AML cell lines (150,000 cells) are then plated onto OP9 monolayers in their appropriated growth medium; THP-1 RPMI-1640 medium containing 10% FBS; MDSL, RPMI-1640 medium containing 10% FBS and 10 ng/ml recombinant human IL-3; Kasumi-1, RPMI-1640 containing 20% FBS; MV4-11, IMDM containing 10% FBS. Cells are then treated for 72 hours with DMSO (vehicle control), RA (0.1 μM for THP-1 and MV4-11 cells, and 1 μM for Kasumi-1 cells), test CYP26 inhibitor compound, or the combination of RA and inhibitor compound. After the treatment period, leukemic cells are collected and stained with fluorophore labeled antibodies against cell surface antigens indicative of myeloid differentiation (PE-CD11b), or of stem cell populations (FITC-CD34, PE-CD38); all antibodies are available from BD Biosciences. Stained cells are then sorted by FACS in a BD FACS Aria 3 flow cytometer (Queen's University) using FACS Diva software, to assess percentage of cells that are CD11b^+, the relative expression levels of CD11b (by median fluorescence intensity—MFI), or percentage of CD34^+CD38^− leukemic stem cells (LSCs). Results are typically presented as the average of triplicates.

Regarding `CC(C)(C)c1cccc(-c2cc3cc(/C=C/C(=O)O)ccc3[nH]2)c1` [Compound 026], in the assay on kasumi-1 human AML cells, the “Number of CD34+CD38- cells (LSCs)” value is reported as “restored the ability of RA to reduce the number of”. Moreover, the Colony forming units entry with THP-1 cells is “rescued the effects of RA and decreased colony forming units”. Besides, in assay [1], the “Expression of Cyp26a1 and Crabp2 in bone marrow mononuclear cells” value was “both induced”. Besides, in the assay on MV4-11 cells, the “RA-induced apoptosis (Annexin V positive cells)” value is listed as “rescued by the addition of compound 026”. Moreover, the “RA metabolism, basal and RA-induced” value was “efficiently blocked basal and RA-induced RA metabolism” in assay [2]; “efficiently blocked both basal and RA-induced RA metabolism” in assay [3]. Moreover, the “Bglap and Ibsp expression” value in the assay on MC3T3-E1 cells (10 nmol RA plus 1 μM compound) is “suppressing Bglap and Ibsp expression”; with MC3T3-E1 cells (10 μM compound, osteogenic medium), “blocked their expression”. For the same compound, the Cyp26b1 gene expression result with MC3T3-E1 cells (compared with controls) was “dramatic upregulation of Cyp26b1”. Also, in the assay with MC3T3-E1 cells (osteogenic medium, 21 days, increasing concentrations), the “Calcified matrix (alizarin red staining)” value was “reduced by the presence of compound 026 in a dose-dependent manner”. Besides, in the assay with human AML THP-1 cells (0.1 μM RA plus 1 μM compound, OP9 stroma present, 72 hours), the “PE-CD11b MFI” value was “greatly enhanced CD11b MFI”. Besides, the “Sensitization to low doses of RA” value with human AML THP-1 cells (in the presence of stroma) is “sensitized THP-1 cells to low doses of RA”.

(Values after patent US11358933B2, “Compounds and methods for inhibiting CYP26 enzymes” (Queen's University at Kingston, priority 2017, dated 2022).)
